Measured values reported in US20080008652A1, “Methods and compositions for mediation of immune responses and adjuvant activity” (The Regents of the University of Michigan, priority 2006, published 2008).

Key:
[1] = tested on: peritoneal macrophages and bone marrow-derived macrophages (BMDM); assay: Cytokine secretion (IL-1β, IL-18, TNFα, IL-6) by stimulated macrophages, ELISA; assay type: cell-based, mouse; conditions: for secretion of IL-1β with brief ATP treatment: ligand 16 h, then 2 mM ATP 30 min; for requirement of endosomal acidification for IL-1β secretion: FIG. 12
[2] = tested on: caspase-1; assay: Caspase-1 activation (pro-caspase-1 processing) in macrophages, Western blotting; assay type: cell-based, mouse; conditions: for proteolytic processing of pro-caspase-1 (mature 20 kDa subunit): WT macrophages, ligand 1-3 h, then ATP 30 min
[3] = tested on: BMDM; assay: Cooperation of low-dose LPS with microbial ligands for IL-1β secretion; assay type: cell-based, mouse; conditions: for synergy with LPS for the secretion of IL-1β: WT BMDM, 10 ng ml−1 LPS and 10 ng ml−1 ligand, 24 h
Description: Measurements of cytokines. BMDM and peritoneal macrophages were prepared as previously described. Cells were stimulated with various microbial and synthetic ligands for 24 h and the supernatants were analyzed for IL-1β, IL-18, TNFα and IL-6 secretion. The following ligand concentrations were used: FLS-1, Pam3CSKKK4, LPS, lipoteichoic acid, lipid A and MDP were used at 1 μg ml^−1. For analysis of cooperation of LPS with various ligands, 10 ng ml^−1 of LPS and 10 ng ml^−1 of various ligands were used. In some experiments, the macrophages were stimulated with ligands for 16 h and then with medium containing 2 mM ATP (Sigma) for 30 min, washed, and cultured for an additional 5 h. Mouse cytokines were measured in culture supernatants with enzyme-linked immunoabsorbent assay (ELISA) kits (R and D Systems, Minneapolis, Minn.).

[4] = tested on: NF-κB, ERK and p38; assay: NF-κB and MAPK (ERK, p38) activation in macrophages, Western blotting; assay type: cell-based, mouse; conditions: R837 5 μg ml-1
[5] = tested on: IL-1β, IL-6 and TNFα in serum; assay: Serum cytokines after co-injection of LPS and R837 into mice, ELISA; assay type: in vivo, mouse
Description: (200 μg) or LPS plus […] (200 μg each) and levels of IL-1β (a), IL-6 (b) or TNFα (c) in serum were determined by ELISA at the indicated times.

[6] = tested on: HSA-specific immunoglobulin; assay: Adjuvant activity: HSA-specific serum immunoglobulin after immunization; assay type: in vivo, mouse
Description: Immunization of mice. […] Serum sample were obtained two weeks after the first immunization and one week after the boost, and antigen specific serum immunoglobulin was assessed by ELISA using antibodies against mouse immunoglobulin and isotype controls (Southern Biotechnology).

[7] = tested on: mice; assay: LPS-induced endotoxic shock, survival; assay type: in vivo, mouse; conditions: WT compared with cryopyrin−/− mice; 200 μg or 400 μg LPS
Description: Indicated numbers of wild-type and cryopyrin−/− mice (8 to 12 weeks old) were challenged with 200 μg (a) or 400 μg (b) of LPS and the survival over time of each mouse genotype was plotted.

[8] = WT compared with cryopyrin−/− macrophages
[9] = WT compared with cryopyrin−/− peritoneal macrophages or BMDM, 24 h stimulation, ELISA
[10] = WT compared with cryopyrin−/− macrophages, R837 stimulation 24 h
[11] = WT mice, co-injection of LPS and R837 compared with each alone
[12] = cryopyrin−/− mice, LPS plus R837
[13] = cryopyrin−/− compared with WT mice, R837 100 μg and HSA 50 μg i.p., 2 weeks after immunization

CC(=O)N[C@H]1C(O)O[C@H](CO)[C@@H](O)[C@@H]1O[C@H](C)C(=O)N[C@@H](C)C(=O)N[C@H](CCC(=O)O)C(N)=O (mixture of isomers) [MDP, muramyl dipeptide]
secretion of IL-1β with brief ATP treatment [1, 8]: did not induce secretion of IL-1β over background levels
secretion of IL-1β [1, 9]: did not induce secretion of IL-1β over background levels
proteolytic processing of pro-caspase-1 (mature 20 kDa subunit) [2]: did not induce proteolytic processing of pro-caspase-1

flagellin
synergy with LPS for the secretion of IL-1β [3]: not

Pam2CGDPKHPHSF
secretion of IL-1β [1, 9]: induced comparable levels of IL-1β in wild-type (WT) and cryopyrin−/− macrophages

lipid A
secretion of IL-1β [1, 9]: induced comparable levels of IL-1β in wild-type (WT) and cryopyrin−/− macrophages
activation of caspase-1 ([2]; cryopyrin−/− macrophages): unimpaired in cryopyrin−/− macrophages
synergy with LPS for the secretion of IL-1β [3]: not

CC(C)Cn1cnc2c(N)nc3ccccc3c21 [R837, Imiquimod]
requirement of endosomal acidification for IL-1β secretion [1]: not required
production of IL-6: need for cryopyrin [1, 10]: cryopyrin was dispensable
production of TNFα: need for cryopyrin [1, 10]: cryopyrin was dispensable
secretion of IL-1β with brief ATP treatment [1, 8]: Cryopyrin is required
secretion of IL-1β [1, 9]: abrogated
secretion of IL-18 [1, 9]: abrogated
activation of caspase-1 ([2]; TLR7- or MyD88-deficient macrophages): proceeded normally
proteolytic processing of pro-caspase-1 (mature 20 kDa subunit) [2]: induced in WT macrophages
activation of caspase-1 ([2]; cryopyrin−/− macrophages): abrogated in macrophages lacking cryopyrin
activation of caspase-1 ([2]; macrophages lacking ASC): abrogated
activation of NF-κB and MAPKs ([4]; TLR7- and MyD88-deficient macrophages): abolished in TLR7- and MyD88-deficient macrophages
NF-κB, ERK and p38 activation ([4]; WT compared with cryopyrin−/− BMDM): induced comparable levels of NF-κB, ERK and p38 activation in WT and cryopyrin−/− macrophages
enhancement of LPS-mediated IL-1β production ([3]; cryopyrin−/− macrophages): abrogated in cryopyrin−/− macrophages
levels of IL-1β in serum ([5]; WT mice, co-administration of R837 and LPS (200 μg each) compared with each alone): higher levels of IL-1β in serum than injection of R837 or LPS alone
serum levels of IL-6 [5, 11]: enhanced
serum levels of TNFα [5, 11]: enhanced
serum levels of IL-6 [5, 12]: Reduced levels
serum levels of TNFα [5, 12]: Reduced levels
enhancement of the LPS response (serum IL-1β) by R837 ([5]; cryopyrin−/− mice, LPS plus R837 200 μg each): abolished in cryopyrin−/− mice
production of antigen specific IgG1 [6, 13]: exhibited a defect
production of antigen specific IgG2a/c [6, 13]: exhibited a defect
production of antigen specific IgG3 [6, 13]: exhibited a defect

lipopolysaccharide [LPS]
requirement of endosomal acidification for IL-1β secretion [1]: not required
secretion of IL-1β [1, 9]: induced comparable levels of IL-1β in wild-type (WT) and cryopyrin−/− macrophages
activation of caspase-1 ([2]; cryopyrin−/− macrophages): unimpaired in cryopyrin−/− macrophages
lethality of high doses of LPS [7]: comparable lethality in WT and cryopyrin−/− mice

CCN(CC)CCCC(C)Nc1ccnc2cc(Cl)ccc12 (stereo not shown) [chloroquine]
effect on production of IL-1β induced by bacterial RNA ([1]; treatment of macrophages with chloroquine): did not affect

5′-TCCATGACGTTCCTGACGTT-3′ [CpG]
synergy with LPS for the secretion of IL-1β [3]: not
enhancement of HSA-specific IgG responses ([6]; WT compared with cryopyrin−/− mice, CpG 100 μg and HSA 50 μg, boosted 3 weeks later): unaffected by cryopyrin deficiency

Pam3CSK4
secretion of IL-1β [1, 9]: induced comparable levels of IL-1β in wild-type (WT) and cryopyrin−/− macrophages

lipoteichoic acid
secretion of IL-1β [1, 9]: induced comparable levels of IL-1β in wild-type (WT) and cryopyrin−/− macrophages
synergy with LPS for the secretion of IL-1β [3]: not
